Assay results: patent US6214859A, “Ethylamine derivatives” (Fujimoto Brothers Co., Ltd., priority 1997, dated 2001)
“And” between values parts separate entries of the source, which are not always exact repeats. Identical values can stand only once.

What was measured:
[1] = tested on: dopamine release, tuberculum olfactorium; assay: Release of biogenic amines from brain tissue: dopamine, tuberculum olfactorium; type: in vivo, Wistar rats
D2 receptor = assay: Affinity to D2 receptor; design: species or system rat; settings: read-out: Affinity to D2 receptor (MIC50; mole concentration for 50% inhibition of binding); 2.0 nM spiperone
α2 receptor = assay: Affinity to α2 receptor; design: species or system rat; settings: read-out: Affinity to α2 receptor (MIC50; mole concentration for 50% inhibition of binding); 0.7 nM ^3H-rauwolscine
human platelet MAO-B = target: T1, human platelet MAO-B (Homo sapiens, UniProt P27338); assay: biochemical; settings: 10^-5 M; read-out: Inhibition rate of MAO-B
T1 construct: The suspension was used as enzyme for MAO activity assay in blood platelets; from tissue; host or cells: human blood platelets (frozen, thawed and sonicated platelet rich plasma)
T1 sequence (P27338 1-520): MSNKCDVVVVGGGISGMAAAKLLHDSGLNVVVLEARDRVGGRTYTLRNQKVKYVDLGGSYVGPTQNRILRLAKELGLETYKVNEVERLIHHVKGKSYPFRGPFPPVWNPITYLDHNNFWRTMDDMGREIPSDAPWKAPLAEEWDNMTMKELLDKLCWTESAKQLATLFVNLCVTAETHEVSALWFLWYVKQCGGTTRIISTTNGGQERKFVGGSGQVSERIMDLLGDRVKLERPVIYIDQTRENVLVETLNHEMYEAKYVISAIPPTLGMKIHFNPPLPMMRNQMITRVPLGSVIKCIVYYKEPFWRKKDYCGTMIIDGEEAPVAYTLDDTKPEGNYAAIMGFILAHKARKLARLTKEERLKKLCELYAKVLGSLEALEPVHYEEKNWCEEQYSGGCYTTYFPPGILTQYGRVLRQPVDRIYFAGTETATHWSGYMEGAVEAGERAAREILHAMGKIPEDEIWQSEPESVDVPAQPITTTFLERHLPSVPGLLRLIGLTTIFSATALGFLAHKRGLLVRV
Protocol: Human blood added with 3.8% citric acid was centrifuged at 950 rpm for 10 min and platelet rich plasma (PRP) was obtained. The residual blood cell was centrifuged at 3,000 rpm for 10 min and platelet poor plasma (PPP) was obtained. After blood platelets were measured from a part of PRP, PRP and PPP were frozen at -20° C. They were thawed and were sonicated to be dispersed and suspended when MAO activity was measured. The suspension was used as enzyme for MAO activity assay in blood platelets. In addition, almost all of MAO in blood platelets have been known to be B type.
MAO-B activity was determined according to the method described in Biochem. Pharmacol., 14, 1684-1685 (1965). […] The mixture was incubated at 37° C. for 5 min. After 80 μl of PRP or PPP was added to it, the mixture was incubated at 37° C. for 20 min. Thereafter, 120 μl of substrate (0.33 mg/ml kynuramine dihydrobromide) was added thereto. After incubation at 37° C. for 30 min, 800 μl of 10% trichloroacetic acid were added to stop the reaction and the solution was centrifuged at 3,000 rpm for 10 min. To 1 ml of the supernatant, 2 ml of 1 N NaOH was added and fluorescence of the solution was measured at Ex 312 nm and Em 380 nm. PRP was prepared to 250,000 cell/μl as amounts of blood platelets with […] phosphate buffer solution and 4-hydroxyquinoline was used as standard for measurement.

5-HT1 receptor = assay: Affinity to 5-HT1 receptor; design: species or system rat; settings: read-out: Affinity to 5-HT1 receptor (MIC50; mole concentration for 50% inhibition of binding); 2 nM ^3H-5-HT

SMILES	Release of dopamine, tuberculum olfactorium ([1]; 0.005 mg/kg s.c.)	Release of dopamine, tuberculum olfactorium ([1]; 0.01 mg/kg s.c., Hydrochloride)	Release of dopamine, tuberculum olfactorium ([1]; 0.05 mg/kg s.c.)	Release of dopamine, tuberculum olfactorium ([1]; 0.25 mg/kg s.c.)	Release of dopamine, tuberculum olfactorium ([1]; 1.00 mg/kg s.c.)	Release of dopamine, tuberculum olfactorium ([1]; 5.00 mg/kg s.c.)	IC50 (D2 receptor)	IC50 (α2 receptor)	inhibition at 10 µM (human platelet MAO-B)	IC50 (5-HT1 receptor)	Release of dopamine, tuberculum olfactorium ([1]; 0.10 mg/kg s.c.)
CCCNC(CCC)Cc1c[nH]c2ccccc12.Cl (stereo not shown) [Compound No. 20, 1-(Indol-3-yl)-2-propylaminopentane Hydrochloride]	7.0 ± 0.25 nmol/g tissue, for 20 min	8.0 ± 0.17 nmol/g tissue, for 20 min and 5.5 ± 0.20 nmol/g tissue, for 20 min	5.8 ± 0.19 nmol/g tissue, for 20 min	3.5 ± 0.21 nmol/g tissue, for 20 min	4.3 ± 0.07 nmol/g tissue, for 20 min	4.8 ± 0.09 nmol/g tissue, for 20 min	> 10 µM	0.9 µM	6.4%	7 µM	
CCCNC(CCC)Cc1ccc2c(c1)OCO2.Cl (stereo not shown) [Compound No. 27, 1-(1,3-Benzodioxol-5-yl)-2-propylaminopentane Hydrochloride]				5.2 ± 0.23 nmol/g tissue, for 20 min					34%		4.7 ± 0.13 nmol/g tissue, for 20 min
